Measurements published in patent US10415054B2, “Designer circuit controlling diet-induced obesity” (ETH ZURICH, priority 2013, dated 2019).

How the values were obtained:
[1] = molecular target: T1, lipid-sensing receptor (LSR; TtgR-PPARα) (UniProt Q07869+Q9AIU0); assay: Fatty acid/fibrate-controlled SEAP expression in pKR135/pMG10-transgenic HT-1080; assay type: cell-based, human; conditions: for sensitivity of LSR (SEAP expression): pKR135/pMG10-transgenic HT-1080, 48 h, FIG. 3d,e
T1 construct: TtgR (phloretin-responsive repressor of Pseudomonas putida DOT-T1E); expressed in transfected cells; host or cells: HT-1080 (A1, A5; in A5 microencapsulated and implanted into mice); several rodent, primate and human cell lines (A2)
T1 sequence (Q9AIU0+Q07869 with tags, fused parts or gaps): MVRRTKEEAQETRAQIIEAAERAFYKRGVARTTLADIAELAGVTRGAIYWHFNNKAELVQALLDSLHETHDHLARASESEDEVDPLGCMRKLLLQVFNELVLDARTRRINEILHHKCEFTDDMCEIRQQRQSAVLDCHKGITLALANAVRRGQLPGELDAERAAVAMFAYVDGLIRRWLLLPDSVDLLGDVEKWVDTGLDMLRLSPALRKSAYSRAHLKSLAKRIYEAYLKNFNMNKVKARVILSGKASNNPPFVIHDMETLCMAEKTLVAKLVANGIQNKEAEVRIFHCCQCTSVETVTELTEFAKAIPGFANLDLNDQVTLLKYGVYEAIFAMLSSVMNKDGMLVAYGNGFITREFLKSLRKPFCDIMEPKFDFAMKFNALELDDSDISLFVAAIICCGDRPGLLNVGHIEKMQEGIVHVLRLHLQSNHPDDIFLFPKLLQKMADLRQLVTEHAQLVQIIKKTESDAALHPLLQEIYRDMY
Description: Wild-type Chinese hamster ovary cells (CHO-K1, ATCC: CCL-61) were cultured in ChoMaster® HTS (Cell Culture Technologies GmbH, Gravesano, Switzerland) containing 1% penicillin/streptomycin. All cell types were cultivated at 37° C. in a humidified atmosphere containing 5% CO2. […] After transfection, all cells were cultivated in their specific media containing different inducer concentrations and reporter protein levels were profiled after 48 h unless stated otherwise. […]

[2] = molecular target: T1, lipid-sensing receptor (LSR; TtgR-PPARα); assay: Linoleic acid-induced SEAP expression in different cell lines cotransfected with pKR135/pMG10; assay type: cell-based; conditions: several rodent, primate and human cell lines, 48 h, FIG. 2
Description: Linoleic acid-induced SEAP expression in different cell lines. Cells were cotransfected with the LSR-encoding expression vector (pKR135; PhCMV-LSR-pA) and the PTtgR1-driven SEAP expression plasmid (pMG10; […]), grown in the presence of different linoleic acid (LA) concentrations, and SEAP levels were profiled in the culture supernatant after 48 h.
(§1) Human embryonic kidney cells (HEK-293T, ATCC: CRL-11268), Baby hamster kidney cells (BHK-21, ATCC: CCL-10), African green monkey kidney cells (COS-7, ATCC: CRL-1651), human cervical adenocarcinoma cells (HeLa, ATCC: CCL-2), human fibrosarcoma cells (HT-1080, ATCC: CCL-121) and immortalized human mesenchymal stem cells (hMSC) (Simonsen, J. L. et al., Nat Biotechnol 20, 592-596 (2002)) were cultivated in Dulbecco's modified Eagle's medium (DMEM; Invitrogen, Basel, Switzerland) supplemented with 1% (v/v) penicillin/streptomycin solution (Sigma-Aldrich, Munich, Germany). […]
(§2) Production of the human placental secreted alkaline phosphatase (SEAP) in culture was quantified according to a p-nitrophenylphosphate-based time course of light absorbance (Schlatter S. et al., Gene 282, 19-31 (2002)). Serum levels of SEAP were quantified using a chemiluminescence-based assay (Roche Diagnostics GmbH, Mannheim, Germany).

TtgA1 (TtgR-VP16) = molecular target: T2, TtgA1 (TtgR-VP16) (Pseudomonas putida, UniProt Q9AIU0); assay: Phloretin-responsive gene switch (pMG10/pMG11) in HT-1080 exposed to linoleic acid; assay type: cell-based; conditions: HT-1080 pMG10/pMG11, 48 h, FIG. 6
T2 construct: expressed in transfected cells; host or cells: HT-1080
Description: HT-1080 were cotransfected with the components encoding the phloretin-responsive gene switch (pMG10, (PTtgR1-SEAP-pA) and pMG11, (PSV40-TtgA1-pA)) and grown for 48 h in the presence of increasing linoleic acid (LA) concentrations before SEAP was profiled in the cell culture supernatant.
as §1, with “Germany). Wild-type Chinese hamster ovary cells (CHO-K1, ATCC: CCL-61) were cultured in ChoMaster® HTS (Cell Culture Technologies GmbH, Gravesano, Switzerland) containing 1% penicillin/streptomycin.” for “Germany).”
as §2

LSR sensor device = molecular target: T3, LSR sensor device (UniProt Q07869+Q9AIU0); assay: Serum SEAP in wild type mice implanted with microencapsulated pKR135/pMG10-transgenic HT-1080; assay type: in vivo; conditions: wild type mice on standard diet, 48 h, FIG. 4a,b
T3 construct: TtgR (phloretin-responsive repressor of Pseudomonas putida DOT-T1E); expressed in transfected cells; host or cells: HT-1080 (A1, A5; in A5 microencapsulated and implanted into mice); several rodent, primate and human cell lines (A2)
T3 sequence (Q9AIU0+Q07869 with tags, fused parts or gaps): T1 sequence (Q9AIU0+Q07869 with tags, fused parts or gaps)
Text: (a-d) Standard low fat-fed wild type mice were implanted with microencapsulated pKR135-/pMG10-transgenic HT-1080 (2×10^6 cells/mouse) and received different doses of linoleic acid (LA) and palmitic acid (PA) (fatty acids, FA) (a), rapeseed oil (RO) (b) or were put on standard low fat (LF, 5 kcal % fat), medium fat (MF, 10 kcal % fat) and high fat (HF, 60 kcal % fat) diets (D) (c, d). Resulting blood SEAP (bSEAP) levels (a, b, d) and blood fat levels (BF) represented by serum cholesterol (C) and phospholipid (PL) concentrations (c) were quantified after 48 h (a, b, d) or 72 h (c). Data are mean±SEM, statistics by two-tailed t test; n=8 mice. *P<0.05, **P<0.005, ***P<0.0001 vs. zero lipid doses (a,b) or LF mice (c,d).
as §2, with “Germany). […]” for “Germany).”

Compound	sensitivity of LSR (SEAP expression) [1]	other results
CCCCCCCCCCCCCC(=O)O [myristic acid]	sensitive	–
CCCCC/C=C\C/C=C\CCCCCCCC(=O)O [linoleic acid]	sensitive	SEAP induction [2]: SEAP was exclusively induced; sensitivity of the phloretin-responsive control element (SEAP) (TtgA1 (TtgR-VP16)): Insensitivity; SEAP in serum (LSR sensor device): significant dose-dependent increase
CCCCCCCCCCCC(=O)O [lauric acid]	sensitive	–
O=C(CCc1ccc(O)cc1)c1c(O)cc(O)cc1O [phloretin]	–	phloretin-triggered effect on fatty acid-induced transgene (SEAP) expression ([1]; HT-1080 induced by 100 μM linoleic acid, 48 h, FIG. 3c): shut down transgene expression
CCCCCCCC/C=C\CCCCCCCC(=O)O [oleic acid]	sensitive	–
Cc1ccc(C)c(OCCCC(C)(C)C(=O)O)c1 [gemfibrozil]	sensitive	–
CCCCCCCCCCCCCCCC(=O)O [palmitic acid]	sensitive	SEAP in serum (LSR sensor device): significant dose-dependent increase
CCCCC/C=C\C/C=C\C/C=C\C/C=C\CCCC(=O)O [arachidonic acid]	sensitive	–
Cc1cccc(Nc2cc(Cl)nc(SCC(=O)O)n2)c1C [WY-14643]	sensitive	–
CCCCCCCCCCCCCCCCCC(=O)O [stearic acid]	sensitive	–
